Data set [1] in a line: Pharmacokinetics in rats after intravenous infusion and oral gavage. Type of data set: in vivo. How it is done:
The compound of Example 4, 3-[Bis-(4-chloro-phenyl)-methanesulfonyl]-1,1,1-trifluoro-propan-2-one, was administered to rats via a 5-minute intravenous infusion at 0.175 mg/mL (solution in 5% DMA/95% Tris base (50 mM in water)) and oral gavage at 0.35 mg/mL (suspension in 5% (w/v) PEG 200/95% (w/v) methylcellulose (0.5%)). Following intravenous administration of a 0.5 mg/kg dose to rats, the systemic clearance was about 0.06 mL/min/kg and the volume of distribution was about 0.2 L/kg. […] Following a 1 mg/kg oral dose, the compound of Example 4 was absorbed in rats with mean peak plasma levels of 6 μg/mL occurring approximately 2.5 hours after dosing. Based on the ratio of the dose-normalized area under the plasma concentration-time curve from 0 to 96 hour after oral and intravenous doses, the absolute oral bioavailability averaged about 100%. […]

The nature of data set [2]: Plasma stability in rat plasma and acidified rat plasma (LC/MS). Type of data set: in vitro ADME. The conditions noted are these: 1 μg/mL, 1 hour at room temperature or 37° C. How it is done: Plasma stability studies were conducted on (Di-p-tolyl-methanesulfonyl)-acetic acid methyl ester and [bis-(4-chloro-phenyl)-methanesulfonyl]-acetic acid methyl ester. Briefly, these compounds (at a final concentration of 1 μg/mL) were separately inclubated in rat plasma and acidified rat plasma for 1 hour at room temperature or 37° C.

Data set [3] deals with MCP-1 response in THP-1 cells. Nature of the data set: Calcium flux in THP-1 cells stimulated with human MCP-1 (FLIPR). The format is cell-based. The conditions noted are these: read-out: Calcium Flux IC50. How it is done: Compounds of were evaluated for their effect on calcium flux using methodology known in the art, e.g., Neote et al., Cell 1993, 72:415–425. Briefly, THP-1 cells were incubated with the fluorescence dye FLUO-4 for 1 hour, the cells were washed after this loading period, resuspended in HANKs buffer, and loaded into a 384-well plate. The cells were then incubated in the presence of a compound of Example 1–12, 14, 18, 22–23, 27–28, 30, or [bis-(4-chloro-phenyl)-methanesulfonyl]-acetic acid methyl ester. After a 30-minute incubation period, the cells were stimulated with 33 nM human MCP-1 and the calcium flux response recorded and quantified with a FLIPR^384® (384-well Fluorometric Imaging Plate Reader) ([…], Sunnyvale, Calif.). The IC50's (μM) of the inhibition of the maximal MCP-1 response are set out in Table 1.
On the technique in general: Calcium assays in cells follow changes in intracellular calcium, usually with a dye or a luminescent sensor.

Data set [4] has as its target T1, MCP-1 receptor (300-19 cell membranes) (Homo sapiens, UniProt P41597).
T1 construct: host or cells: 300-19 cells (membrane preparation)
Nature of the data set: Inhibition of binding of 125I-MCP-1 to 300-19 cell membranes. How it is done: Compounds were also assayed for their ability to inhibit the binding of radiolabeled MCP-1 to cell membranes. The materials and methods are set out below.
Membrane Preparation. 300-19 cells were harvested by centrifugation and washed with PBS (Dulbecco's phosphate-buffered saline w/o Ca and Mg). Cells were frozen at −80° C. overnight then resuspensed in ice cold lysis buffer (5 mM HEPES, 2 mM EDTA, 10 μg/mL of leupeptin, aprotinin, and chymostatin, and 200 μg/mL PMSF). The cell suspension was centrifuged at 1,000 rpm for 10 minutes and the supernatant was transferred and centrifuged at 14,000 rpm for 45 minutes at 4° C. then discarded. The resulting pellet was resuspended in stock buffer (10 mM HEPES, 300 mM sucrose, 20 μg/mL of leupeptin, aprotinin, and chymostatin, and 200 μg/mL PMSF), aliquoted, and frozen at −80° C. until use. Typical binding assays used 1.0 μg/well protein.
Prepared membranes were resuspended in binding buffer (50 mM Tris, 10 mM MgCl2, 1 mM EDTA pH 7.4) at 10 μg/mL protein. Membranes (1.0 μg/well) were incubated with ^125I-MCP-1 (0.15 nM) in the absence or presence of unlabeled chemokine (465 nM) or a compound of Examples 1–11, 14, 16, 19, 22, 27–30, 33–34, or [bis-(4-chloro-phenyl)-methanesulfonyl]-acetic acid methyl ester (0.001 μM–40 μM) for 3 hours at room temperature in a 96-well plate (total volume 250 μL). The reaction was terminated by filtration using a 96-well plate harvester (Packard Filtermate 196 Harvester). Filters (Packard GF/C) were prewet with 0.3% PEI containing 0.5% BSA and washed 5 times with wash buffer (DPBS, 0.3 MnCl2, and 0.25% BSA) prior to reaction termination. After terminating the reaction, filters were washed 6 times with wash buffer, and allowed to dry overnight. Scintillation fluid (Packard's Micro Scint 20) was added to each well and radioactivity bound was determined by liquid scintillation spectrometry. Nonspecific binding was determined in the presence of 465 nM unlabeled MCP-1. The IC50's (μM) of the inhibition of the binding of the iodinated MCP-1 are set out in Table 2.

Where [5] appears, read: 0.5 h, THP-1 cells, 30-minute incubation, stimulated with 33 nM human MCP-1, inhibition of the maximal MCP-1 response.
Setting [6] is: 300-19 cell membranes 1.0 μg/well, 125I-MCP-1 0.15 nM, 3 hours at room temperature, read-out: IC50 of the inhibition of the binding of the iodinated MCP-1.

Each structure is given as a SMILES string. Where two headings read alike, the source gives them in different places.

T1 sequence (P41597 whole entry): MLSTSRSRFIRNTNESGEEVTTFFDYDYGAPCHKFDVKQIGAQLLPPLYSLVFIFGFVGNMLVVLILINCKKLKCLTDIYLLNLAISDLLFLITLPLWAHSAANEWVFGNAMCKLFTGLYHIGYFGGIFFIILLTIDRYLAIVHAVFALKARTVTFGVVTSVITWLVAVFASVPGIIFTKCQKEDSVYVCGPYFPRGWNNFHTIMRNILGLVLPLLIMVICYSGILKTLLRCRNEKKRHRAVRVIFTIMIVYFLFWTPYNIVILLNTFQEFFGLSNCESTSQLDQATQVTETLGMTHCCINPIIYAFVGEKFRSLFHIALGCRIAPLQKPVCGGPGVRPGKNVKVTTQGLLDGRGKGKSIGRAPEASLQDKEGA

Consider `COC(=O)CS(=O)(=O)C(c1ccc(C)cc1)c1ccc(C)cc1` [(Di-p-tolyl-methanesulfonyl)-acetic acid methyl ester, reference compound], for which the “plasma concentrations after intravenous or oral administration” value in data set [1] (rats, 1 mg/kg intravenous infusion or 5 mg/kg oral gavage, LC/MS) is on record as “below the lower limit of quantitation”. Besides, the “compound remaining after incubation in plasma” value in data set [2] is “below the lower limit of quantitation”.
One may read the IC50 as the concentration that inhibits the measured activity by half. As usually defined, the bioavailability is dose-corrected exposure relative to a reference, in per cent. Read a low bioavailability as little systemic uptake. A word on the half-life: it is the time in which the quantity being followed falls by half. For orientation: melting point means the temperature, or range, at which the solid turns liquid. Regarding `O=C(CS(=O)(=O)C(c1ccc(Cl)cc1)c1ccc(Cl)cc1)C(F)(F)F` [Example 4, 3-[Bis-(4-chloro-phenyl)-methanesulfonyl]-1,1,1-trifluoro-propan-2-one], the melting point fell in the range of 60 to 62 °C. The IC50 in data set [3] (setting [5]) worked out at 495 nM. In data set [4] (setting [6]), the concentration for half-maximal inhibition (IC50) amounted to 175 nM. In addition, in data set [1] (rat, in vivo), the bioavailability was approximately 100% and the half-life was approximately 47 h. In data set [1] (rat, in vivo, iv, 0.5 mg/kg), this compound returned a Vd of approximately 0.2 L/kg and a clearance of approximately 0.06 mL/min/kg. In addition, in data set [1] (rat, in vivo, po, 1 mg/kg), the “mean peak plasma levels” value stood at 6 µg/mL and the “time of peak plasma levels after dosing” value is “approximately 2.5 hours”.
Consider `O=C(CF)CS(=O)(=O)C(c1ccc(Cl)cc1)c1ccc(Cl)cc1` [Example 7, 3-[Bis-(4-chloro-phenyl)-methanesulfonyl]-1-fluoro-propan-2-one], for which the melting point lay in the range of 55 to 58 °C. For the same compound, the IC50 in data set [3] (setting [5]) is 423 nM. In data set [4] (setting [6]), the IC50 came to 101 nM. In data set [1] (rat, in vivo), this compound showed a bioavailability of less than 10% and a half-life of 1.5 h. For the same compound, the “decrease in concentrations within 2 hours after dosing” value in data set [1] (rat, in vivo, iv, 1 mg/kg) was more than 100 fold. In addition, in data set [1] (rat, in vivo, po, 5 mg/kg), the “mean peak plasma levels” value was found to be 0.359 µg/mL, the “time for which plasma concentrations were measurable after dosing” value came to 4 h and the “time of peak plasma levels after dosing” value was found to be 15 min.
On to `O=C(CS(=O)(=O)C(c1ccc(Cl)cc1)c1ccc(Cl)cc1)C(F)F` [Example 8, 3-[Bis-(4-chloro-phenyl)-methanesulfonyl]-1,1-difluoro-propan-2-one], for which the IC50 in data set [3] (setting [5]) turned out to be 108 nM. For the same compound, the IC50 in data set [4] (setting [6]) is 88 nM. In addition, in data set [1] (rat, in vivo), the bioavailability is approximately 43% and the half-life was 7 h. Also, in data set [1] (rat, in vivo, iv, 1 mg/kg), the Vd was determined as 0.28 L/kg and the clearance was 0.75 mL/min/kg. For the same compound, in data set [1] (rat, in vivo, po, 5 mg/kg), the “mean peak plasma levels” value was “about 7 μg/mL” and the “time of peak plasma levels after dosing” value was 30 to 60 min.
As to `COC(=O)CS(=O)(=O)C(c1ccc(Cl)cc1)c1ccc(Cl)cc1` [[Bis-(4-chloro-phenyl)-methanesulfonyl]-acetic acid methyl ester, reference compound], the IC50 in data set [3] (Homo sapiens, THP-1, 0.5 h) was found to be 150 nM; in data set [4] it was 7320 nM. Also, in data set [2], the “compound remaining after incubation in plasma” value was “below the lower limit of quantitation”.

These data come from patent US7067538B2, “MCP-1 receptor antagonists and methods of use thereof” (Warner-Lambert Company, LLC, priority 2002, dated 2006).
